In publication PMC7693203 (Epilepsia, 2020):
Where two headings read alike, the source gives them in different places. Marks after values point to notes of the source that are not given here.

How the values were obtained:
CYP3A4 [1] = target: T1, CYP3A4 (Homo sapiens, UniProt P08684)
[2] = cited from earlier work; for decrease in AUCtau with concomitant CBD / decrease in C max with concomitant CBD: patients with epilepsy on stable VPA
[3] = patients with epilepsy on stable CLB; result in words; cited from earlier work
[4] = healthy volunteers, cited from earlier work; for increase in AUCtau with concomitant CBD / increase in C max with concomitant CBD: steady-state ASD
CYP3A4 [5] = target: T1, CYP3A4; assay: clinical; conditions: in vivo
[6] = trial 17074; after CBD alone, during RIF treatment, or after CBD and RIF; of 16
CYP3A4 [7] = target: T1, CYP3A4; conditions: result in words; cited from earlier work
CYP2C19 = CYP2C19 (Homo sapiens, UniProt P33261); conditions: result in words; cited from earlier work
[8] = cited from earlier work

T1 sequence (P08684 whole entry): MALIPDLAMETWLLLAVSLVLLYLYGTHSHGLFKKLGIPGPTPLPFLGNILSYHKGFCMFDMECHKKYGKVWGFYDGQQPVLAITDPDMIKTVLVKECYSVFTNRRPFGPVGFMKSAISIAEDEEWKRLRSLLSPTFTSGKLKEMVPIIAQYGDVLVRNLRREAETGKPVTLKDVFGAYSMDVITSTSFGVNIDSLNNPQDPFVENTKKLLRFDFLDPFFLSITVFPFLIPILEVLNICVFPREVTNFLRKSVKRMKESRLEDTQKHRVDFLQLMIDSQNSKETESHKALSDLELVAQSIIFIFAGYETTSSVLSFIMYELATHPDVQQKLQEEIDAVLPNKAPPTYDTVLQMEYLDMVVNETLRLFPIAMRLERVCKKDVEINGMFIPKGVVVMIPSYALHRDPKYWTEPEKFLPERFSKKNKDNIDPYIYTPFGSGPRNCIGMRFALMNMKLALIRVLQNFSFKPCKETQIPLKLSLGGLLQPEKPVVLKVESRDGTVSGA
Sequence of CYP2C19 (P33261 whole entry): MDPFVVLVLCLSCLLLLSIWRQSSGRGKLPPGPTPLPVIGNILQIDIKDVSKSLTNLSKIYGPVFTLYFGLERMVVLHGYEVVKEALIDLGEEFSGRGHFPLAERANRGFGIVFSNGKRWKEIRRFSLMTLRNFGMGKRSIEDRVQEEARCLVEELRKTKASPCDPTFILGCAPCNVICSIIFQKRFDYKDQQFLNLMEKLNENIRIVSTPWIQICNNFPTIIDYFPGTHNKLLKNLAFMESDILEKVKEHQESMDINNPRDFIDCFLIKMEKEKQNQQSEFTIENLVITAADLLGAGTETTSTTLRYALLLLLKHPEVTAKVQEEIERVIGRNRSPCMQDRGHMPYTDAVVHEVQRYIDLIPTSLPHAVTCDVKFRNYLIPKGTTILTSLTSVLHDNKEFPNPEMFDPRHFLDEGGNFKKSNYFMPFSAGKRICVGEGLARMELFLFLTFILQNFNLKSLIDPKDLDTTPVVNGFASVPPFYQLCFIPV

## OCc1ncc2n1-c1ccc(Cl)cc1C(c1ccccc1F)=NC2 [1′‐OH‐MDZ, 1′‐hydroxymidazolam]
CYP3A4 [1]; MDZ + CBD (steady-state CBD 750 mg BID), median (min‐max)
  t max: 3.00 (0.50‐5.02) ^e h
CYP3A4 [1]; MDZ + placebo, MDZ 2.5 mg single dose, arithmetic mean (CV%)
  t ½: 6.11 (39.0) h
CYP3A4 [1]; MDZ + placebo, median (min‐max)
  t max: 0.50 (0.48‐1.55) ^d h
CYP3A4 [1]; steady-state CBD
  increase in AUCtau with concomitant CBD: 68%
  increase in C max with concomitant CBD: 12%
  increase in t ½ with concomitant CBD: 35%
CYP3A4 [1]; with concomitant CBD, 90% CI = 1.00‐2.52
  delay to t max, median of differences: 2.25 h

## C=CCC(CCC)C(=O)O (stereo not shown) [4‐ene‐VPA, 2‐propyl‐4‐pentenoic acid]
[2]
  decrease in AUCtau with concomitant CBD: 30%
  decrease in C max with concomitant CBD: 23%

## CN1C(=O)CC(=O)N(c2ccccc2)c2cc(Cl)ccc21 [CLB, clobazam]
[3]
  effect of concomitant CBD on exposure: no effect
[4]
  increase in AUCtau with concomitant CBD: 21%
  increase in C max with concomitant CBD: 20%

## Cc1ncc2n1-c1ccc(Cl)cc1C(c1ccccc1F)=NC2 [MDZ, midazolam]
CYP3A4 [1]; human, in vivo
  t max: 1.00 (0.5‐3.00) h
  t ½: 4.53 (14.5) h
CYP3A4 [5]; t max
  t max: 0.5 h
CYP3A4 [5]; t ½
  half-life: 4.99 h

## CO[C@H]1/C=C/O[C@@]2(C)Oc3c(C)c(O)c4c(O)c(c(/C=N/N5CCN(C)CC5)c(O)c4c3C2=O)NC(=O)/C(C)=C\C=C\[C@H](C)[C@H](O)[C@@H](C)[C@@H](O)[C@@H](C)[C@H](OC(C)=O)[C@@H]1C [RIF, rifampicin]
[6]
  healthy volunteers reporting AEs: 81%

## CC(C)(C)C(O)/C=C/c1ccc2c(c1)OCO2 (stereo not shown) [STP, stiripentol]
CYP3A4 [7]
  inhibition of CYP3A4: potent inhibitor
[2]; patients with epilepsy
  increase in AUCtau with concomitant CBD: 30%
  increase in C max with concomitant CBD: 17%
[4]
  increase in AUCtau with concomitant CBD: 55%
  increase in C max with concomitant CBD: 28%
CYP2C19
  inhibition of CYP2C19: potent inhibitor
[8]
  Plasma protein binding (PPB): 96.1%

## CCCC(CCC)C(=O)O [VPA, valproate]
[2]
  decrease in AUCtau with concomitant CBD: 17%
  decrease in C max with concomitant CBD: 13%
[4]; result in words
  effect of concomitant CBD on exposure: no effect
[8]; result in words
  PPB when VPA and CBD are combined in vitro: not affected
